According to publication PMC9305538 (Chembiochem, 2022):
Like-named read-outs stand apart in the source and are kept apart here.

How the values were obtained:
FDHC23S+AzoRo [1] = details: 150 μM NADH; 50 μM FMN; 50 mM phosphate pH 7; 25 °C; apparent; AzoRo part
FDHC23S+AzoRo [2] = details: 150 μM NADH; 50 μM FMN; 50 mM phosphate pH 7; 25 °C; apparent; AzoRo part; remark: listed apart in the source
FDHC23S+AzoRo [3] = details: 1 mM NAD+; 50 mM phosphate pH 7; 25 °C; apparent; FDH part

CN(C)c1ccc(/N=N/c2ccccc2C(=O)O)cc1 [compound 1, methyl red]
Km (FDHC23S+AzoRo [1]): 73.9 ± 47.5 µM

CC(=O)Nc1ccc(S(=O)(=O)O)c2cc(S(=O)(=O)O)c(N=Nc3ccc(N=Nc4ccc(S(=O)(=O)O)cc4)c4ccc(S(=O)(=O)O)cc34)c(O)c12 [compound 5, Brilliant Black BN]
Km (FDHC23S+AzoRo [2]): 6.01 ± 1.39 µM

O=CO [Formate]
Km (FDHC23S+AzoRo [3]): 48900 ± 4880 µM
